Measured values reported in article PMC5412445, “ZeGlobalTox: An Innovative Approach to Address Organ Drug Toxicity Using Zebrafish” (International Journal of Molecular Sciences, 2017).
Entries after “also recorded” stand apart in the source; their conditions may differ. Structures can show the parent of a compound that is named as a salt.

Experiments:
[1] = system: zebrafish larvae liver; assay: ZeGlobalTox hepatotoxicity: Oil Red O staining (steatosis and yolk lipid accumulation); conditions: 132 hpf; for Percentage of larvae presenting steatosis: 36 h drug incubation at NOEC (EtOH 2%, MPTP 100 µM), DMSO 24.44%
Protocol: In order to assess drugs producing steatosis and yolk lipid accumulation, and subsequent to the RFP filtered images being acquired, zebrafish larvae were stained with Oil Red O. Larvae and were sorted into steatosis positive or negative, yolk lipid accumulation, or both (see materials and methods).
For the ZeGlobalTox assay, fertilized Tg(cmlc2:GFP; fabp10:RFP; ela31:EGFP) zebrafish embryos were collected in E3 medium (5 mM NaCl, 0.17 mM KCl, 0.33 mM CaCl2, 0.33 mM, MgSO4) in Petri dishes. At 3, 24, and 48 hpf, dishes were observed and all not fertilized, abnormal, or coagulated eggs were discarded. At 96 hpf, 20 larvae per condition were incubated with the NOECs from the different drugs and allowed to develop until 132 hpf at 28.5 °C.
After 36 h of drug incubation (132 hpf), embryos are fixed in 4% paraformaldehyde (158127-500G, Sigma-Aldrich, Saint Louis, MO, USA) for 2–4 h at room temperature (RT) and then are 3× washed with PBS.
In order to detect the presence of steatosis and yolk lipid retention, zebrafish larvae were stained with Oil Red O (O0625-25G, Sigma-Aldrich, Saint Louis, MO, USA) as described in [77]. Briefly, the skin pigment from fixed larvae is removed by incubating with bleaching solution (for 10 mL: 6 mL H2O, 0.25 mL 20× SSC, 0.5 mL formamide, 3.3 mL H2O2) during 20 min at RT. Then, the larvae are 5× washed with PBS. Bleached embryos are first submerged in 85% Propylene glycol (PG) (134368-1L, Sigma-Aldrich, Saint Louis, MO, USA) for 10 min and then in 100% PG for another 10 min before staining them with Oil Red O 0.5% in 100% PG (overnight, at RT and with gentle rocking). Oil Red O stained embryos are washed in 100% PG for 30 min, 50 min in 85% PG, and 40 min in 85% PG with an equal volume of PBS. Finally, embryos are washed 1× with PBS before adding 80% glycerol (G7757-500ML, Sigma-Aldrich, Saint Louis, MO, USA). Bright field images are taken to detect both steatosis and yolk lipid accumulation. […] Yolk lipid retention is considered positive when a red strong signal is observed in the yolk area (Figure 5F).
DMSO 1% treated larvae were used as the negative control group.

[2] = system: humans; conditions: known toxicity in humans, ref TOXNET (HSDB), Side effects (EMBL), drugs.com, cited from earlier work; for Neurotoxicity (toxicity in humans): [22],[30],[31],[34],[35]; for Cardiotoxicity (toxicity in humans) / Hepatotoxicity (toxicity in humans): ema.europa; for Cardiotoxicity (toxicity in humans): [19],[20],[21]; for Hepatotoxicity (toxicity in humans): [24],[26],[27],[32],[33]
[3] = system: zebrafish larvae; set-up: method as in PMID 16408054, PMID 22744888; conditions: ref [50],[57]; cited from earlier work
[4] = system: zebrafish larvae; assay: ZeGlobalTox neurotoxicity evaluation (locomotion, light/dark trial); type: in vivo, zebrafish (Danio rerio); conditions: 120 hpf, drug from 96 hpf at NOEC (MPTP 100 µM, paracetamol 2600 µM)
Protocol: By 5 dpf, zebrafish larvae perform spontaneous swimming and their visual system is fully developed. Therefore, behavioural experiments were performed from this time point (Figure 4A). Deviations in total distance moved, in response to photo-visual stimulation, were analysed as a direct measurement of neurotoxicity. Thus, drugs increasing or decreasing total distance moved when compared to the DMSO-only group were considered neurotoxic. As the positive neurotoxic control we used MPTP, which has been identified as a neurotoxic drug in humans and zebrafish.
Immediately after heart video acquisition, larvae are washed with E3 medium to remove tricaine methanesulfonate from the solution. Fresh drug solution is added and the larvae are transferred individually in a volume of 150 µL to 96 well plates.
Neurotoxicity is analysed at 120 hpf by locomotion assessment using the EthoVision XT 11.5 software and the DanioVision device from Noldus Information Technologies, Wageningen, The Netherlands. This closed system consists of a camera placed above a chamber with circulating water and a temperature sensor set at 28 °C. The 96-well plates are placed in the chamber, which can then be illuminated with white light using the software. Larvae are then left for 20 min under these conditions and with the lights on to help their acclimation. Finally, larvae locomotion is measured during 50′ under the following light/dark conditions: 10′ darkness-10′ Light-10′ darkness-10′ Light-10′ darkness. Total distance moved (in mm) is acquired under this light/dark trial. Due to circadian rhythms, all locomotion assays were performed from 13:00 pm onwards to ensure steady activity of the zebrafish.
Neurotoxicity is assessed by comparing locomotion differences among the tested compounds (solved in DMSO) and the negative control group (DMSO 1%-only).

[5] = system: zebrafish larvae heart; assay: ZeGlobalTox cardiotoxicity evaluation (heart video, ZeCardio software); type: in vivo, zebrafish (Danio rerio); conditions: 100 hpf, 4 h after drug incubation at NOEC (haloperidol 10 µM)
Protocol: Four cardiac parameters were evaluated to assess whether a compound was cardiotoxic: heart rate (beats per minute, BPM), QTc prolongation, ejection fraction (EJF), and cardiac arrest. […] 1% DMSO was used as the negative control.
Cardiotoxicity evaluation was performed from 96 hpf, when the zebrafish heartbeat is already stabilised, so the analysis might not be altered by unstable beating. Zebrafish hearts were video-recorded at 4 h after drug incubation (100 hpf) and analysed using the ZeCardio® β software (Figure 3A).
After 4 h of drug incubation (100 hpf), zebrafish larvae were anesthetized by immersion in […] tricaine methanesulfonate (A4050, Sigma-Aldrich, Saint Louis, MO, USA)/E3 solution. […] The 1% DMSO treated embryos were used as negative cardiotoxic controls. Embryos were positioned in an agarose based mold to allow their appropriate orientation under the fluorescence stereo microscope (Olympus MVX10). Individual fluorescent hearts were recorded during 60 s each (Figure 6A). Videos were acquired with a high-speed recording camera (Hamamatsu C11440 ORCA-flash 2.8) and analysed with the ZeCardio® β software to extract different cardiac parameters—heart rate, cardiac arrest, QTc prolongation, and Ejection Fraction (EJF) (Figure 6B).
ZeCardio® β software, developed by ZeClinics and currently in β status, provides a graphical user interface (GUI) that facilitates the semi-automatic analysis of living heart videos. Interactive analysis of the different parameters functions as follows: The user draws a line along the heart axis, from ventricle to atrium, to initiate the calculation. […] All lines can be subjected to modification of their angles and lengths.
Heart beat frequency for each chamber is detected and frequencies are presented in the GUI as a mean. A plot distribution is used for assessing beat stability over time (Figure 6F). In the same fashion, chamber specific cardiac arrest is measured as the longest beating pause (Figure 6H). No beating chambers and/or incorrect bpm can be manually flagged when detected.
For calculation of the QTc interval (linearly corrected QT interval), the Framingham formula (QTc = QT + 0.154 (1 − RR)) was adjusted for zebrafish as QTc = QT + 0.154 (2.66 − RR). RR = 6.6 ms/measured bpm is applied (Figure 6G). Finally, the Ejection Fraction, calculated as the maximal dilatation (the diastolic diameter, DD) versus the maximal contraction (systolic diameter, SD) is measured in % as EF% = (DD − SD)/DD*100 (Figure 6G). Computed values for the described parameters were exported in .csv format (Figure 6H).

[6] = in vivo; type: in vivo; conditions: zebrafish, in vivo; mortality; embryos incubated 3 to 96 hpf; 5 logarithmic concentrations 0.1 µM to 1 mM; 1% DMSO
Excerpt: (§1) Several issues were considered when planning the experimental protocol. The main concern was that drug-induced mortality and/or developmental toxicity (teratogenicity) could mask possible organ-toxicities appearing later in development. […] This preliminary assay allowed for the identification of non-mortal/non-teratogenic concentrations—no observed effect concentration (NOEC)—to use in the following assays. The hypothesis is that NOEC could affect organ physiology (organ toxicity), while uncoupled from putative developmental toxicity side-effects affecting organ development or function. Another consideration was to start drug incubations at 96 hours post fertilization (hpf), when the analysed organs are close to or already developed (Figure 1B). The overall aim is to understand the drug impact on organ physiology and function rather than early embryogenesis. The third consideration was to organize the sequential organ evaluation during the experimental and drug incubation time.
(§2) 1% DMSO, which is the constant solvent concentration in all conditions, was used as the negative control.
(§3) Thus, 20 wild type (wt) zebrafish embryos per condition were incubated with tested compounds from 3 to 96 hpf. The test was performed in 5 logarithmic concentrations per drug (from 0.1 µM to 1 mM). Each larva was analysed for mortality, body deformity, edema, tail detachment, pigmentation, heart activity, heart edema, and motor activity. […] DMSO 1% was used as the negative control in all experiments.

[7] = system: wild type zebrafish embryos; assay: in vivo; type: in vivo; conditions: embryos incubated 3 to 96 hpf; 5 logarithmic concentrations 0.1 µM to 1 mM; 1% DMSO
Excerpt: as §1, §2, §3

Row | SMILES | Percentage of larvae presenting yolk lipid retention ([1]; 36 h drug incubation at NOEC (paracetamol 2600 µM), DMSO 22.22%) [%] | Neurotoxicity (toxicity in humans) [2] | Cardiotoxicity (toxicity in humans) [2] | Hepatotoxicity (toxicity in humans) [2] | Impact on the heart rate in zebrafish larvae [3] | Motility (total distance moved) compared to DMSO [4] | Heart rate (beats per minute) compared to DMSO-only [5] | Longest cardiac arrest compared to DMSO-only [5] | LC50 [6] [µM] | 96 hpf LOEC [7] [µM] | QTc interval compared to DMSO-only [5] | Percentage of larvae presenting steatosis [1] [%] | 96 hpf NOEC [7] [µM]
1 | CC(=O)Nc1ccc(O)cc1 [Acetaminophen] | 60 | Toxic ^2,3 | Toxic ^1,2,3 | Toxic ^1,2,3 [24] | no impact | Decreased motility |  |  |  |  |  |  | 
2 | CC[C@]1(O)C[C@H]2CN(CCc3c([nH]c4ccccc34)[C@@](C(=O)OC)(c3cc4c(cc3OC)N(C=O)[C@H]3[C@@](O)(C(=O)OC)[C@H](OC(C)=O)[C@]5(CC)C=CCN6CC[C@]43[C@@H]65)C2)C1 [Vincristine, vincristine] |  | Toxic ^1,2,3 | Toxic ^1,2,3 | Safe |  | increased motility | decreased the heart rate | Longer cardiac arrest | 31.6 | 100 |  |  | 
3 | CC(C)NCC(O)COc1cccc2[nH]ccc12 (stereo not drawn) [Pindolol, pindolol] |  | Toxic ^2,3 | Toxic ^1,2,3 | Safe |  | increased motility | decreased the heart rate | Longer cardiac arrest | > 1000 | 1000 | QTc interval prolongation; also recorded: increased QTc |  | 
4 | CN1CCN(CCCN2c3ccccc3Sc3ccc(C(F)(F)F)cc32)CC1 [Trifluoperazine HCL, trifluoperazine hydrochloride] |  | Toxic ^1,2,3 | Toxic ^1,2,3 | Toxic ^1,2,3 |  | Decreased motility | decreased the heart rate | Longer cardiac arrest | 31.6 | 100 |  | 85 | 10
5 | CN1CC=C(c2ccccc2)CC1 [MPTP, 1-methyl-4-phenyl-1,2,3,6-tetrahydropyridine] |  | Toxic [22, 30, 31] |  |  |  | Decreased motility |  |  |  |  |  | 50 | 
6 | CNCC(O)c1ccc(O)c(O)c1.Cl (racemic) [(±)-Epinephrine HCL, (±)-epinephrine hydrochloride] |  | Toxic ^1,2,3 | Toxic ^1,2,3 | Safe |  | increased motility |  |  |  |  |  | 80 | 1000.00
